In test [1] the test system is lateral line hair cells. The experiment in a line: Cavitation (acoustic trauma)-induced lateral line hair cell damage in larval zebrafish, hair cell survival assessment. The class given is in vivo. Conditions: for protection from cavitation-induced hair cell damage (hair cell survival score vs DMSO control): blinded mini-screen of select redox library compounds, FIG. 12B. As to the method:
At 5 days post-fertilization (dpf), fish were fed a light dusting of GEMMA micro 75 while in petri dishes. All noise exposure experiments were conducted at 6 dpf. Larval zebrafish were placed into wells A2-A5 and D2-D5 of a modified 24-well plate (3 fish per well) containing fish water and suspended atop 22 cm of water within the container 2 (stainless-steel canister) with the bottom of the 1 cm of the well plate 5 submerged (as generally shown in FIG. 1). While the well plate is disclosed often with the bottom of the plate being submerged, it is also to be understood that the entire well plate may be submerged without departing from the scope of the invention. Fish were exposed to cavitation for periods ranging from 20 to 120 minutes.
Immediately following cavitation fish were transferred to a 6-well plate 5 (6 fish per well) and kept in the fish facility on a 14 h light/10 h dark cycle for up to 5 post-exposure days. Each post-exposure morning (9-10 am) 50% of fish water was exchanged with fresh fish water and fish were lightly dusted with GEMMA food. Each post-exposure day evening (5-6 pm) fish were transferred to a fresh 6-well plate with completely fresh fish water.
Survival of lateral line hair cells was assessed by vital dye labeling in live fish and direct hair cells counts in live and fixed animals. The vital dye 2-(4-(dimethylamino)styryl)-N-ethylpyridinium iodide (DASPEI) is a marker of mitochondria membrane potential and stains lateral line hair cells. Fish were incubated in 0.005% DASPEI for 15 min, then rinsed twice with fish water and anesthetized with 0.001% MS-222. Using a Leica M165FC fluorescence dissection scope, 10 anterior neuromasts (IO1, IO2, IO3, IO4, M2, MI1, MI2, O2, SO1, and SO2) per fish were assessed based on fluorescent intensity. An intensity score of 2 signifies bright neuromast fluorescence, an intermediate score of 1 represents dim DASPEI labeling, while a 0 neuromast score equates to no neuromast fluorescence at a given neuromast's stereotyped position. The scores from 10 neuromasts per fish were summed such that each fish receives a score between 0 (no neuromast fluorescence) and 20 (full complement of hair cells in all 10 neuromasts).
All inhibitors (to test roles of cell death (including apoptosis, pyroptosis and necroptosis) and inflammation, were added to 6-well plates immediately after cavitation-exposed fish were removed from the device. Inhibitors were refreshed during the same intervals as fish water (twice daily) until the end of the desired exposure window. To test the role of protein synthesis, fish were pulse treated immediately after acoustic trauma for 4 h with the protein synthesis inhibitor cycloheximide (C7698; Sigma Aldrich). In separate experiments, acoustic trauma-exposed fish were continuously treated with either the pan caspase inhibitor Z-VAD-FMK ([…]; Sigma Aldrich) or the antioxidant D-methionine (F7111; UBPBio) to assess the contribution of caspase activation and ROS overproduction, respectively, in the acoustically stimulated lateral line. A small blinded screen was also conducted of select compounds from a larger redox library (BML-2835-0100; Enzo Life Sciences). Compounds chosen had either known protective effects in mammalian models of NIHL (as proof-of concept) or had not been previously tested against NIHL (to identify new protective molecules).

In test [2] the test system is hair cells. Conditions: intracochlear perfusion, guinea pigs; cited from earlier work.
In test [3] the test system is cochlear hair cells. Conditions: guinea pigs; cited from earlier work.
Test [4] relates to cochlear hair cells. As to conditions: mice; cited from earlier work.
The conditions of test [5]: cited from earlier work.

“Also recorded” adds a separate entry of the source. Read-outs that look alike come from different tables or passages of the source. Where a SMILES comes first, the peptide text is derived from it. The star is where a group is joined. Cbz = O=C(OCc1ccccc1)*; CH2F = FC*

Turning to `O=c1cc(-c2ccccc2)oc2cc(O)c(O)c(O)c12` [baicalein], in test [1], the “protection from cavitation-induced hair cell damage (hair cell survival score vs DMSO control)” value was “significantly protected lateral line hair cells from cavitation-induced hair cell damage”.
With `COC(=O)C[C@H](NC(=O)[C@H](C)NC(=O)[C@@H](NC(=O)OCc1ccccc1)C(C)C)C(=O)CF` [Z-VAD, Z-VAD-FMK] (Cbz-Val-Ala-Asp(OMe)-CH2F), the “protection from cavitation-induced hair cell damage (hair cell survival)” value (shortened to “protection … (hair cell survival)”) is “significantly reduced cavitation-induced hair cell damage” in test [1] (1 μM, treatment for entire 72-hour post-exposure window, FIG. 11B) and “reduced cavitation-induced lateral line hair cell damage; also recorded: robustly protects hair cells from damage” in test [1] (72-h treatment starting immediately after acoustic stimulation, concentration not stated, FIG. 11B). Besides, the “hair cell loss following blast noise trauma” value in test [2] is reported as “reduces hair cell loss”.
Consider `CSCC[C@@H](N)C(=O)O` [D-methionine], for which the “protection … (hair cell survival)” value in test [1] (100 μM, FIG. 12A) was “protected lateral line hair cells from cavitation damage”; in test [1] (500 μM, FIG. 12A), “protected lateral line hair cells from cavitation damage”; in test [1] (72 hour treatment, concentration not stated at place, FIG. 12A) it was “protects lateral line hair cells from cavitation”; in test [1] (72 hour treatment, concentration not stated at place, FIG. 12A, listed as D-Methionine) it was “robustly protects lateral line hair cells from cavitation”. Further, the “protection of cochlear hair cells from acoustic trauma” value in test [3] and in test [4] was “protects cochlear hair cells” each time.
As for `CCOC(=O)/C=C/c1ccc(O)c(OC)c1` [ferulic acid ethylester], in test [1], the “protection from cavitation-induced hair cell damage (hair cell survival score vs DMSO control)” value was “significantly protected lateral line hair cells from cavitation-induced hair cell damage”.
On to `N[C@@H](CCC(=O)N[C@@H](CS)C(=O)NCC(=O)O)C(=O)O` [glutathione], for which the “protection from cavitation-induced hair cell damage (hair cell survival score vs DMSO control)” value in test [1] is recorded as “significantly protected lateral line hair cells from cavitation-induced hair cell damage”.
With `CCCCS(=N)(=O)CCC(N)C(=O)O` (centres unmarked) [buthionine sulfoximine], the “protection from cavitation-induced hair cell damage (hair cell survival score vs DMSO control)” value in test [1] is “did not confer protection”.
Take `C[C@@H]1C[C@@H]([C@H](O)CC2CC(=O)NC(=O)C2)C(=O)[C@@H](C)C1` [cycloheximide]: the “protection … (hair cell survival)” value in test [1] (4 h pulse treatment immediately after acoustic stimulation, assessed 72 h post-exposure, FIG. 11A) is given as “prevented hair cell loss; also recorded: reduces hair cell damage”; in test [1] (4 h pulse treatment immediately after acoustic stimulation, assessed 72 h post-exposure, FIG. 11A, listed as Cycloheximide), “protected lateral line hair cells from cavitation in a dose-dependent manner”.
As for `CC1=C(C)C(=O)C(CC[C@](C)(O)CCC[C@H](C)CCC[C@H](C)CCCC(C)C)=C(C)C1=O` [d-α-tocopherylquinone], the “protection from cavitation-induced hair cell damage (hair cell survival score vs DMSO control)” value in test [1] is listed as “significantly protected lateral line hair cells from cavitation-induced hair cell damage”.
Regarding `CC(=O)N[C@@H](CS)C(=O)O` [N-acetylcysteine], the “prevention of NIHL, clinical trial outcome” value in test [5] is on record as “failed to meet clinical endpoints”.

Source of the values: patent US20190311703A1, “ACOUSTIC TRAUMA SYSTEM FOR LARVAL FISH” (WASHINGTON STATE UNIVERSITY, priority 2018, published 2019).
